Assay results published in PMC10065799, “High-throughput profiling of sequence recognition by tyrosine kinases and SH2 domains using bacterial peptide display” (eLife, 2023).
Values belong to the sequence of their own block, whether it stands above or below them.

Experiments:
Experiment in all cases: pTyr-Var library bacterial peptide display kinase screen (enrichment scores)
c-Abl kinase domain = target: T1, c-Abl kinase domain (Mus musculus, UniProt P00520); assay type: biochemical
T1 sequence (P00520 242-493 limits assumed): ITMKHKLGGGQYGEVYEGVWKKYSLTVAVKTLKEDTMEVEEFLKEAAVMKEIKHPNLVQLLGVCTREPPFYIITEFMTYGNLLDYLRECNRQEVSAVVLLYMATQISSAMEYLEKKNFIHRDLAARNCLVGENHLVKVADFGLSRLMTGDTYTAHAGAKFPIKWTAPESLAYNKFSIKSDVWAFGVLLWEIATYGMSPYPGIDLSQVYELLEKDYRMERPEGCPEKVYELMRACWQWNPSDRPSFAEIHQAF

c-Src kinase domain = c-Src kinase domain (Homo sapiens, UniProt P12931); assay type: biochemical; conditions: sheet "Src"
EPHB2 kinase domain = assay type: biochemical, human; conditions: sheet EPHB2; effect of variant peptide relative to its reference peptide in the pTyr-Var library screen (enrichment scores)
Fer kinase domain = assay type: biochemical, mouse; conditions: sheet "Fer"; value of the variant peptide against its reference peptide in the pTyr-Var library screen with Fer
EPHB1 kinase domain = assay type: biochemical, human; conditions: sheet EPHB1; effect of the variant peptide relative to its reference peptide in the pTyr-Var library screen (enrichment scores)
[1] = fig5-data2, sheet "Abl", Screen for the variant/reference peptide pair, pTyr-Var library
[2] = effect of the variant peptide relative to its reference peptide in the pTyr-Var library screen
[3] = sheet "Abl", effect of variant peptide relative to its reference peptide in pTyr-Var library screen (enrichment)
[4] = variant peptide versus its reference peptide in the pTyr-Var library screen
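Note: log2 fold change in enrichment of variant over reference.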

Sequence: NSAFFYKTAEE [CCT6B_Y250_G247A]
- Screen (c-Abl kinase domain; [1]): 0.06962

Sequence: LITTLYISFLG [KCNQ1_Y267_G269S]
- Screen (c-Src kinase domain; [2]): -1.106

Sequence: DFFDLYGGQKF [PTPN11_Y66_E69Q_YF]
- Screen (c-Src kinase domain; [4]): 1.294

Sequence: PNRILYGDFQQ [MYH7_Y715_R719Q]
- Screen (c-Src kinase domain; [4]): -0.8592

Sequence: LTVVIYVLVGR [EPHA3_Y561_I564V]
- Screen (EPHB2 kinase domain): -4.573
- Screen (Fer kinase domain): -2.144

Sequence: TKLKDYFIFNK [CCDC42_Y149_A144T_YF]
- Screen (c-Abl kinase domain; [1]): -0.5052

Sequence: NTGGFYDLFGG [PTPN11_Y63_D61G_YF]
- Screen (Fer kinase domain): 1.072
- Screen (c-Src kinase domain; [4]): -0.08944

Sequence: RKETFYILSCR [GUCY2C_Y681_T682I]
- Screen (c-Src kinase domain; [2]): -2.18

Sequence: TKDTFYQQPMF [GBA_Y451_K452Q]
- Screen (EPHB2 kinase domain): 1.843
- Screen (Fer kinase domain): 2.731

Sequence: GLTSTYVGIRK [ROBO1_Y932_A933V]
- Screen (c-Src kinase domain; [4]): -1.42

Sequence: QDLLLYQTHSE [PKHD1_Y255_F253L]
- Screen (EPHB2 kinase domain): 1.452
- Screen (Fer kinase domain): 1.348
- Screen (c-Src kinase domain; [4]): 0.9307

Sequence: PLCPDYQEPSR [DDR2_Y481_R478C]
- Screen (EPHB2 kinase domain): 1.681

Sequence: SLIDMYSEVLA [OPA1_Y268_D273A]
- Screen (c-Src kinase domain; [4]): 1.458

Sequence: VKFGAYINDFK [GLB1_Y488_N484K_YF]
- Screen (c-Abl kinase domain; [1]): -0.5379

Sequence: LWQSIYNLDAE [TNNT2_Y251_E254D]
- Screen (c-Src kinase domain; [4]): 0.02036

Sequence: REETTYLPLTS [ICAM3_Y527_S525T]
- Screen (c-Src kinase domain; [2]): -0.5459

Sequence: QRVLLYVQRET [GRHL3_Y518_R520Q]
- Screen (c-Abl kinase domain; [1]): -0.6307

Sequence: GDEVEYMSVSF [GCLC_Y53_L55S]
- Screen (Fer kinase domain): -1.292

Sequence: PVQAVYQKVVA [HBB_Y131_A130V]
- Screen (c-Src kinase domain; [2]): 1.787

Sequence: AGARMYGVLPW [PLP1_Y207_D203G]
- Screen (EPHB2 kinase domain): -1.831
- Screen (c-Src kinase domain; [4]): -0.8816

Sequence: EDKFMYLEFPQ [PTEN_Y240_F241L]
- Screen (c-Src kinase domain; [4]): -1.097

Sequence: EFRFIYMAVQH [PTPN11_Y515_Q510E_YF]
- Screen (c-Src kinase domain; [4]): 0.0506

Sequence: GQLIVYAPPEW [CNTN6_Y315_F314V]
- Screen (EPHB2 kinase domain): -0.7681
- Screen (Fer kinase domain): -1.619
- Screen (c-Src kinase domain; [2]): 1.101

Sequence: IVTLKYPIEHG [ACTB_Y69_L65V]
- Screen (c-Abl kinase domain; [1]): -1.416

Sequence: PADQAYSWFQH [NDST1_Y711_R709Q_YF]
- Screen (Fer kinase domain): 0.5054
- Screen (c-Src kinase domain; [4]): 1.532

Sequence: LHVKMYNFLRS [ADGRG7_Y760_R756H]
- Screen (EPHB2 kinase domain): -0.4432

Sequence: HKNNNYEPSLF [BRCA2_Y57_N60S]
- Screen (EPHB1 kinase domain): -1.049

Sequence: FQKDVYNIPPS [NEDD9_Y177_D178N_YF]
- Screen (EPHB2 kinase domain): -2.279
- Screen (c-Src kinase domain; [4]): -0.2537

Sequence: LLEGKYEWQEV [CDKN1B_Y74_P69L]
- Screen (Fer kinase domain): 1.551

Sequence: QLQVFYATRDQ [MIPEP_Y579_L582R]
- Screen (EPHB2 kinase domain): -1.278
- Screen (Fer kinase domain): -2.265
- Screen (c-Src kinase domain; [2]): -2.05

Sequence: PRDGEYFTLQI [TP53_Y327_L323R]
- Screen (c-Src kinase domain; [4]): -0.0193

Sequence: HGEAVYSRDCV [XPC_Y676_R671H]
- Screen (c-Abl kinase domain; [3]): 1.031
- Screen (c-Src kinase domain; [4]): 0.7041

Sequence: LDLPGYCLLRE [CCDC116_Y291_P293L]
- Screen (EPHB1 kinase domain): 0.4195
- Screen (c-Abl kinase domain; [1]): -2.162

Sequence: PNRILYRDFRQ [MYH7_Y715_G716R]
- Screen (c-Src kinase domain; [4]): -3.613

Next, values leading:

- Screen (c-Abl kinase domain; [3]): 1.101
Sequence: GCKNRYDEDKP [THAP1_Y14_K16E]

- Screen (EPHB2 kinase domain): -2.304
Sequence: FCRHNYGVGES [HLA-DRB1_Y112_V115G_YF]

- Screen (c-Abl kinase domain; [1]): -0.8395
Sequence: EAVKNYTEKRG [PBRM1_Y672_D674E]

- Screen (c-Abl kinase domain; [3]): -1.7
Sequence: LAVNPYGPPDL [TTN_Y22579_P22584L]

- Screen (c-Abl kinase domain; [1]): 0.01021
Sequence: QKKPCYEIRWK [PDGFRB_Y562_R561C]

- Screen (c-Abl kinase domain; [3]): 1.474
Sequence: FSSLGYPLPEG [ZSWIM4_Y87_P89L_YF]

- Screen (c-Abl kinase domain; [3]): -1.397
Sequence: DPNQQYFIAMD [TBX15_Y159_H156N_YF]

- Screen (c-Abl kinase domain; [3]): 1.58
Sequence: DTQNSYWCATS [TSC1_Y304_G305W]

- Screen (EPHB1 kinase domain): 0.8437
- Screen (EPHB2 kinase domain): 0.5716
Sequence: LKDEDYLKDTV [HAUS3_Y582_I586T]

- Screen (EPHB2 kinase domain): -1.339
Sequence: ADGLEYPRTGL [MMUT_Y287_S288P]

- Screen (c-Abl kinase domain; [3]): -2.941
Sequence: TKGNEYVFRVA [TTN_Y30829_E30825K]

- Screen (Fer kinase domain): 1.122
Sequence: EALDFYGEVRI [PTEN_Y155_T160I]

- Screen (c-Abl kinase domain; [3]): 2.774
Sequence: IVRSLYEDQED [VHL_Y185_L188Q]

- Screen (EPHB1 kinase domain): -2.287
- Screen (Fer kinase domain): -3.509
Sequence: EELLRYAIVTP [POC5_Y37_H36R]

- Screen (c-Abl kinase domain; [3]): -2.971
Sequence: KACNPYKPPGP [TTN_Y25826_T25821K]

- Screen (c-Abl kinase domain; [3]): 3.326
Sequence: GEFFRYLAEVA [YWHAG_Y133_D129E_YF]

- Screen (c-Abl kinase domain; [1]): 0.9727
Sequence: SENFTYIWWLN [PSG4_Y271_K267E_YF]
